US20130230459A1, “RADIOLABELLED mGluR2 PET LIGANDS” (Janssen Pharmaceuticals, Inc., priority 2010, published 2013)
Where “and” joins values, the source holds several entries; their conditions need not be identical. Equal values may be shown once.

Assay: Biodistribution studies of 11C tracers
Assay type: in vivo, Wistar rats
Conditions: for SUV Blood / SUV Cerebellum / SUV Cerebrum total / SUV Cortex / SUV Hippocampus / SUV Striatum: normalized for body weight
Experimental: Biodistribution studies were carried out in healthy male Wistar rats (body weight 200-450 g) at 2 min, 30 min and 60 min post injection (p.i.) (n=3/time point). Rats were injected with about 11 MBq (2 min, 30 min analysis) or 22 MBq (60 min analysis) of the tracer via tail vein under anesthesia (2.5% isoflurane in O2 at 1 L/min flow rate) and sacrificed by decapitation at above specified time points. Blood and major organs were collected in tared tubes and weighed. The radioactivity in blood, organs and other body parts was measured using an automated gamma counter. The distribution of radioactivity in different parts of the body at different time points p.i. of the tracer was calculated and expressed as percentage of injected dose (% ID), and as percentage of injected dose per gram tissue (% ID/g) for the selected organs. % ID is calculated as cpm in organ/total cpm recovered. For calculation of total radioactivity in blood, blood mass was assumed to be 7% of the body mass.

## [11CH3]Oc1ccc(F)cc1C1CCN(c2ccn3c(CC4CC4)nnc3c2Cl)CC1 [[^11C]B-4, 8-chloro-3-(cyclopropylmethyl)-7-[4-[5-fluoro-2-[^11C]methoxyphenyl]-1-piperidinyl]-1,2,4-triazolo[4,3-a]pyridine]
2 min p.i.
  % ID Blood: 5.6 % ID and 5.6 ± 0.4 % ID
  % ID Carcass: 42.0 ± 2.0 % ID
  % ID Cerebellum: 0.10 % ID and 0.100 ± 0.000 % ID
  % ID Cerebrum total: 0.45 % ID and 0.450 ± 0.029 % ID
  % ID Cortex: 0.092 ± 0.019 % ID
  % ID Heart: 4.1 ± 0.3 % ID
  % ID Hippocampus: 0.010 ± 0.001 % ID
  % ID Intestines: 7.3 ± 0.6 % ID
  % ID Kidneys: 6.4 ± 0.6 % ID
  % ID Liver: 29.9 ± 2.0 % ID
  % ID Lungs: 2.9 ± 0.4 % ID
  % ID Rest of cerebrum: 0.344 ± 0.047 % ID
  % ID Spleen + Pancreas: 1.9 ± 0.2 % ID
  % ID Stomach: 1.5 ± 0.3 % ID
  % ID Striatum: 0.014 ± 0.001 % ID
  % ID Urine: 0.0 ± 0.0 % ID
  Total brain uptake: 0.58 % ID and 0.58 ± 0.0 % ID
  SUV Blood: 0.80 ± 0.01
  SUV Cerebellum: 1.46 and 1.46 ± 0.02
  SUV Cerebrum total: 1.39 ± 0.01
  SUV Cortex: 1.65 ± 0.02
  SUV Hippocampus: 1.04 ± 0.01
  SUV Striatum: 1.46 and 1.46 ± 0.02
30 min p.i.
  % ID Blood: 2.8 ± 0.3 % ID
  % ID Carcass: 64.3 ± 5.8 % ID
  % ID Cerebellum: 0.191 ± 0.030 % ID
  % ID Cerebrum total: 0.694 ± 0.117 % ID
  % ID Cortex: 0.165 ± 0.081 % ID
  % ID Heart: 2.5 ± 0.4 % ID
  % ID Hippocampus: 0.026 ± 0.007 % ID
  % ID Intestines: 8.3 ± 2.0 % ID
  % ID Kidneys: 4.0 ± 0.7 % ID
  % ID Liver: 14.2 ± 2.4 % ID
  % ID Lungs: 0.7 ± 0.1 % ID
  % ID Rest of cerebrum: 0.469 ± 0.047 % ID
  % ID Spleen + Pancreas: 1.4 ± 0.2 % ID
  % ID Stomach: 2.1 ± 0.3 % ID
  % ID Striatum: 0.034 ± 0.005 % ID
  % ID Urine: 0.3 ± 0.2 % ID
  Total brain uptake: 0.93 ± 0.2 % ID
  SUV Blood: 0.40 ± 0.01
  SUV Cerebellum: 2.33 ± 0.04
  SUV Cerebrum total: 1.66 ± 0.03
  SUV Cortex: 1.87 ± 0.02
  SUV Hippocampus: 1.57 ± 0.03
  SUV Striatum: 2.31 ± 0.04
60 min p.i.
  % ID Blood: 3.3 % ID and 3.3 ± 0.2 % ID
  % ID Carcass: 62.8 ± 2.5 % ID
  % ID Cerebellum: 0.144 ± 0.021 % ID
  % ID Cerebrum total: 0.596 ± 0.128 % ID
  % ID Cortex: 0.097 ± 0.039 % ID
  % ID Heart: 1.3 ± 0.3 % ID
  % ID Hippocampus: 0.021 ± 0.005 % ID
  % ID Intestines: 11.1 ± 0.9 % ID
  % ID Kidneys: 2.9 ± 0.4 % ID
  % ID Liver: 15.4 ± 0.9 % ID
  % ID Lungs: 0.5 ± 0.1 % ID
  % ID Rest of cerebrum: 0.450 ± 0.086 % ID
  % ID Spleen + Pancreas: 1.3 ± 0.2 % ID
  % ID Stomach: 1.6 ± 0.3 % ID
  % ID Striatum: 0.029 ± 0.009 % ID
  % ID Urine: 0.6 ± 0.1 % ID
  % ID present in liver and intestines: 26.5 % ID
  % ID present in the urinary system: 3.5 % ID
  Total brain uptake: 0.76 ± 0.1 % ID
  SUV Blood: 0.50 ± 0.00
  SUV Cerebellum: 1.68 ± 0.04
  SUV Cerebrum total: 1.40 ± 0.03
  SUV Cortex: 1.34 ± 0.02
  SUV Hippocampus: 1.13 ± 0.02
  SUV Striatum: 1.78 ± 0.04
At all time points examined
  % ID present in the carcass: ~56 % ID

## [11CH3]Oc1cc(F)cc(F)c1C1CCN(c2ccn3c(CC4CC4)nnc3c2Cl)CC1 [[^11C]B-7, 8-chloro-3-(cyclopropylmethyl)-7-[4-[2,4-difluoro-6-[^11C]methoxyphenyl]-1-piperidinyl]-1,2,4-triazolo[4,3-a]pyridine]
2 min p.i.
  % ID Blood: 5.4 % ID and 5.4 ± 0.3 % ID
  % ID Carcass: 40 % ID and 39.8 ± 2.8 % ID
  % ID Cerebellum: 0.18 % ID and 0.179 ± 0.043 % ID
  % ID Cerebrum total: 0.53 % ID and 0.529 ± 0.098 % ID
  % ID Cortex: 0.081 ± 0.011 % ID
  % ID Heart: 4.1 ± 0.4 % ID
  % ID Hippocampus: 0.020 ± 0.004 % ID
  % ID Intestines: 8.2 ± 1.1 % ID
  % ID Kidneys: 6.5 ± 0.7 % ID
  % ID Liver: 33.4 ± 2.0 % ID
  % ID Lungs: 1.8 ± 0.7 % ID
  % ID Rest of cerebrum: 0.428 ± 0.084 % ID
  % ID Spleen + Pancreas: 1.3 ± 0.2 % ID
  % ID Stomach: 1.5 ± 0.2 % ID
  % ID Striatum: 0.028 ± 0.008 % ID
  % ID Urine: 0.1 ± 0.0 % ID
  Total brain uptake: 0.75 % ID and 0.75 ± 0.1 % ID
  SUV Blood: 0.80 ± 0.00
  SUV Cerebellum: 1.53 ± 0.03
  SUV Cerebrum total: 1.08 ± 0.02
  SUV Cortex: 1.14 ± 0.03
  SUV Hippocampus: 0.85 ± 0.02
  SUV Striatum: 1.13 ± 0.03
30 min p.i.
  % ID Blood: 3.5 ± 0.2 % ID
  % ID Carcass: 64.9 ± 4.2 % ID
  % ID Cerebellum: 0.198 ± 0.026 % ID
  % ID Cerebrum total: 0.718 ± 0.142 % ID
  % ID Cortex: 0.120 ± 0.018 % ID
  % ID Heart: 1.4 ± 0.2 % ID
  % ID Hippocampus: 0.030 ± 0.003 % ID
  % ID Intestines: 10.2 ± 1.5 % ID
  % ID Kidneys: 2.8 ± 0.3 % ID
  % ID Liver: 14.6 ± 1.2 % ID
  % ID Lungs: 0.6 ± 0.1 % ID
  % ID Rest of cerebrum: 0.523 ± 0.117 % ID
  % ID Spleen + Pancreas: 1.2 ± 0.3 % ID
  % ID Stomach: 1.4 ± 0.2 % ID
  % ID Striatum: 0.045 ± 0.014 % ID
  % ID Urine: 0.4 ± 0.1 % ID
  Total brain uptake: 0.93 ± 0.2 % ID
  SUV Blood: 0.50 ± 0.00
  SUV Cerebellum: 2.0 and 2.00 ± 0.03
  SUV Cerebrum total: 1.51 ± 0.03
  SUV Cortex: 1.72 ± 0.05
  SUV Hippocampus: 1.20 ± 0.01
  SUV Striatum: 1.70 ± 0.03
60 min p.i.
  % ID Blood: 3.7 % ID and 3.7 ± 0.4 % ID
  % ID Carcass: 61.5 ± 5.7 % ID
  % ID Cerebellum: 0.163 ± 0.011 % ID
  % ID Cerebrum total: 0.543 ± 0.014 % ID
  % ID Cortex: 0.059 ± 0.007 % ID
  % ID Heart: 0.9 ± 0.1 % ID
  % ID Hippocampus: 0.022 ± 0.003 % ID
  % ID Intestines: 13.4 ± 3.3 % ID
  % ID Kidneys: 2.0 ± 0.3 % ID
  % ID Liver: 15.3 ± 2.1 % ID
  % ID Lungs: 0.7 ± 0.1 % ID
  % ID Rest of cerebrum: 0.435 ± 0.004 % ID
  % ID Spleen + Pancreas: 0.9 ± 0.0 % ID
  % ID Stomach: 2.4 ± 0.7 % ID
  % ID Striatum: 0.026 ± 0.007 % ID
  % ID Urine: 0.5 ± 0.2 % ID
  % ID present in liver and intestines: 28.7 % ID
  % ID present in the urinary system: 2.5 % ID
  Total brain uptake: 0.72 ± 0.0 % ID
  SUV Blood: 0.50 ± 0.01
  SUV Cerebellum: 1.50 ± 0.01
  SUV Cerebrum total: 1.19 ± 0.01
  SUV Cortex: 1.10 ± 0.01
  SUV Hippocampus: 0.98 ± 0.01
  SUV Striatum: 1.43 ± 0.01
